Measured values: ChEMBL document CHEMBL1144363, “Human immunodeficiency virus-reverse transcriptase inhibition and hepatitis C virus RNA-dependent RNA polymerase inhibition activities of fullerene derivatives” (Bioorg Med Chem Lett, 2005)

Assays:
[1] = molecular target: RNA-directed RNA polymerase (Hepacivirus hominis, UniProt O39930); test: Inhibitory concentration against Hepatitis C virus-RNA-dependent RNA polymerase
[2] = molecular target: Human immunodeficiency virus type 1 reverse transcriptase (Human immunodeficiency virus 1, UniProt Q72547); test: Inhibitory concentration against HIV-Reverse transcriptase

Sequence of RNA-directed RNA polymerase (O39930 whole entry): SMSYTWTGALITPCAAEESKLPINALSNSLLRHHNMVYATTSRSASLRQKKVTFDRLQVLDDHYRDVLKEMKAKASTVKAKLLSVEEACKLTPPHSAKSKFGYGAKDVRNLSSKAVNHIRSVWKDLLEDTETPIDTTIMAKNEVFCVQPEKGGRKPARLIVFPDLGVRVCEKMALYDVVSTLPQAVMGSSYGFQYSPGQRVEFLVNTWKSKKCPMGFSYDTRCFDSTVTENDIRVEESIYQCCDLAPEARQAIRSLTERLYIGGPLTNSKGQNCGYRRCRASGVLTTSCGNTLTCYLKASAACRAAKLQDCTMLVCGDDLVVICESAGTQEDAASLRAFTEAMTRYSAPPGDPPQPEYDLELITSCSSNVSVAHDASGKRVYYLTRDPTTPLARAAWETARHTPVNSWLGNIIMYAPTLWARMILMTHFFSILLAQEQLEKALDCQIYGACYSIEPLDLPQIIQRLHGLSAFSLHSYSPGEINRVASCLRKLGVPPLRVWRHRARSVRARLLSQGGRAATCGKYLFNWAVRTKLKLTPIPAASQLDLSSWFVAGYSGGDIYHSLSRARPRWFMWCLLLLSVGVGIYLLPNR

IC50 [1] [µM] | IC50 [2] [µM] | Compound
0.1 |  | CCCCn1c(=O)c(C2=NS(=O)(=O)c3ccccc3N2)c(O)c2ccccc21
0.31 | 1.4 | C[N+]1(C)C[C@]23c4c5c6c7c8c9c%10c%11c%12c%13c%14c%15c%16c%17c%18c%19c%20c(c2c2c4c4c6c6c8c%10c8c%12c%10c%14c(c%15%19)c%12c%20c2c2c4c6c8c%10c%122)[C@@H]%18[C@H]2c4c6c8c%10c(c4-%17)[C@@H]%16[C@H]%13[C@@]%114C[N+](C)(C)C[C@]%104C=9[C@H]8[C@@H]7C5=C6[C@]23C1
3.2 | 1.2 | O=C(O)C1(C(=O)O)[C@]23c4c5c6c7c8c9c%10c%11c%12c%13c%14c%15c%16c%17c%18c%19c%20c(c2c2c4c4c6c6c8c%10c8c%12c%10c%14c(c%15%19)c%12c%20c2c2c4c6c8c%10c%122)[C@@H]%18[C@H]2c4c6c8c%10c(c4-%17)[C@@H]%16[C@H]%13[C@@]%114C(C(=O)O)(C(=O)O)[C@]%104C=9[C@H]8[C@@H]7C5=C6[C@@]213
> 10 | 1 | O=C(O)CN1C[C@@]23C4=C5c6c7c8c9c(c%10c%11c%12c%13c%14c%15c%16c%17c%18c%19c%20c%21c%22c%23c(c6c6c8c8c%24c9c%11c9c(c%16%12)c%17c%11c%19c%12c%21c%23c6c8c%12c%11c9%24)[C@@H]5[C@@H]5C=%22[C@H]6c8c(c-%14c(c4c85)[C@@H]2[C@H]%13%10)[C@H]%15[C@@H]%18[C@@H]%206)[C@]73[C@@H]1C(=O)O
1.4 | 1.3 | CCCCCCCCCC[N@+]1(C)C[C@@]23c4c5c6c7c8c9c%10c%11c%12c%13c%14c%15c%16c%17c%18c%19c%20c%21c(c2c2c4c4c6c9c6c4c4c2c%21c2c%19c(c%18%14)c9c%13c%10c6c9c24)C2=C4c6c(c-%16c9c%10c6[C@H]([C@@H]5C7=C%10[C@]5(C[N+](C)(C)C[C@]8%115)[C@H]9[C@H]%15%12)[C@@]43C1)[C@@H]%17[C@H]2%20
0.31 | 1.7 | C[N+]1(C)C[C@]23c4c5c6c7c8c9c%10c%11c%12c%13c%14c%15c%16c%17c%18c%19c%20c%21c(c2c2c4c4c6c9c6c4c4c2c%21c2c(c%16%20)c%15c9c%13c%10c6c9c24)[C@@H]%19[C@H]2c4c6c9c%10c(c4-%18)[C@@H]%17[C@@H]%14C%12=C%10[C@]4(C[N+](C)(C)C[C@@]8%114)[C@H]9[C@@H]7C5=C6[C@]23C1
0.24 | 1.6 | C[N+]1(C)C[C@@]23C4=C5C6=C7c8c9c%10c%11c%12c%13c%14c%15c%16c%17c%18c%19c%20c%21c%22c%23c%24c%25c%26c%27c(c(c8c8c%10c%13c(c%278)c8c%14c%17c(c%24c%22%18)c%268)[C@@]72C1)[C@H]%25[C@@H]3C=%23[C@@H]4[C@H]%21c1c5c2c3c(c1-%20)[C@H]([C@H]%19%16)[C@@]1(C[N+](C)(C)C[C@]%12%151)C3=C%11[C@H]9[C@H]62
